In patent publication US20240101538A1, “PROTEIN-PROTEIN INTERACTION MODULATORS OF AURORA KINASE A AND THEIR USE IN THE PREVENTION AND/OR TREATMENT OF CANCER” (EBERHARD KARLS UNIVERSITÄT TÜBINGEN, priority 2020, published 2024):
Like-named read-outs stand apart in the source and are kept apart here.

Key:
[1] = target: interaction of AURKA with TPX2 (Homo sapiens (Human), UniProt O14965); assay: Co-immunoprecipitation of FLAG-AURKA and western blot for TPX2; format: cell-based, murine; conditions: Co-IP with anti-FLAG, NMP53^−/− cells synchronized with nocodazole
interaction of AURKA with TPX2, sequence (O14965 whole entry, looked up): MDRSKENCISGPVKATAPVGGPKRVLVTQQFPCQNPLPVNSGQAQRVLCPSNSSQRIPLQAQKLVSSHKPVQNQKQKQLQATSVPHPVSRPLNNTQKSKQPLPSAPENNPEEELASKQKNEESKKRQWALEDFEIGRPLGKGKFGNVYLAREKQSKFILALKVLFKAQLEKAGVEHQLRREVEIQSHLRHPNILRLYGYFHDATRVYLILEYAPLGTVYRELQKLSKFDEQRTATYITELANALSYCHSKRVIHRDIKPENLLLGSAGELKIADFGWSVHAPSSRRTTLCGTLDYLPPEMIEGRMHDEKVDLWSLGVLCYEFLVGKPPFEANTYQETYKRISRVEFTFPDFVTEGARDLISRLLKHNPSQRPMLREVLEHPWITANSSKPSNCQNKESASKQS
interaction of AURKA with TPX2, sequence (A2APB8 whole entry partner, looked up): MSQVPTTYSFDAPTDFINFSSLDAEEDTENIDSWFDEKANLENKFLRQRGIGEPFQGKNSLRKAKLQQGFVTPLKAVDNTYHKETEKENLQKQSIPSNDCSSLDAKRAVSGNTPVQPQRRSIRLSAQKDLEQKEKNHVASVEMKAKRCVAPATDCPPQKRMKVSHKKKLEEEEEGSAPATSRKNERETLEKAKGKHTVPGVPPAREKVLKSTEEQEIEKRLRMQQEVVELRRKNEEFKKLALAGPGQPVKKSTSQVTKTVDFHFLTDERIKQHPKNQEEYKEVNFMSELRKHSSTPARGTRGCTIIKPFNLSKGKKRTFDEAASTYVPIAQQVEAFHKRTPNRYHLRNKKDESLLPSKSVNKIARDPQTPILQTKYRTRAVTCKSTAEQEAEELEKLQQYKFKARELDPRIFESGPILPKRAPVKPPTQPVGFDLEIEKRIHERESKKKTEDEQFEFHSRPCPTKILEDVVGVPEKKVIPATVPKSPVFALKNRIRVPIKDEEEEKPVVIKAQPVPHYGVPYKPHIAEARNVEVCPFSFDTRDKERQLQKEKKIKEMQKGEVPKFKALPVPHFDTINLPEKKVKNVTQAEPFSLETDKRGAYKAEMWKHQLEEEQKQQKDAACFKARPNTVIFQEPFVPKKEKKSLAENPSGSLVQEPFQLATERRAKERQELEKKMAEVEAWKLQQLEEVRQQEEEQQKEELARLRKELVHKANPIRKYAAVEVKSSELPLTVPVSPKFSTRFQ
Description: Tumor cells (NMP53^−/− cells) expressing a doxycycline-inducible FLAG-AURKA construct were kept on doxycycline for 24 hours, synchronized with 50 ng/ml nocodazole for 6 hours and treated with two of the developed compounds or DMSO as a control. In particular, the top “AURKA-Ligand” refers to compound 3a [N-(2-fluoro-5-((4-(1-methyl-1H-pyrazole-4-yl)benzyl)amino)phenyl)-3-(furan-2-yl),propanamide], and the bottom “AURKA-Ligand” refers to compound 2c [N-(5-((4-(1H-pyrazole-4-yl)benzyl)amino)-2-fluorophenyl)-3-(furan-2-yl)propanamide]. Co-immunoprecipitations (Co-IP) were carried out with an antibody against FLAG. A DMSO-treated sample without FLAG-AURKA induction served as a control. The AURKA and TPX2 levels of the Co-IP samples and their input were determined by western blotting.
Tumor cells (NMP53/cells) expressing a doxycycline-inducible FLAG-AURKA construct were kept on doxycycline for 24 hours, synchronized with 50 ng/ml nocodazole for 6 hours and treated with two of the developed compounds of this invention (3a and 2c), or DMSO as a control. Then, co-immunoprecipitations (Co-IP) were carried out with an antibody against FLAG. A DMSO-treated sample without FLAG-AURKA induction served as a control. The AURKA and TPX2 levels of the Co-IP samples and their input were determined by western blotting.

[2] = test system: 320 wildtype kinases; assay: Kinome screen with 320 wildtype kinases; format: biochemical
[3] = target: AURKA (Homo sapiens (Human), UniProt O14965); assay: Radioisotope filter binding assay (HotSpotSM; ReactionBiology) for AURKA kinase inhibition; format: biochemical
AURKA, sequence (O14965 whole entry): as the sequence (O14965 whole entry, looked up) above
From the text: Table 2 summarizes the EC values of different compounds of this invention determined by colony formation assays on NMP53^−/− and NMCdkn2a^ARF−/− cells, as well as the corresponding IC50 values for the kinase inhibition of AURKA, determined by radioisotope filter binding assay (HotSpotSM; ReactionBiology). Most compounds further show a strong selectivity for NMP53^−/− cells, which is indicated by a lower EC concentration of a particular compound required for inhibiting cell growth of NMP53^−/− cells compared to NMCdkn2a^ARF−/− cells.

[4] = test system: MYC; assay: Western blot analysis of cellular MYC levels in NMP53^−/− cells; format: cell-based, murine; conditions: 8 h after treatment with increasing concentrations
Description: A. Western blot analysis of MYC and AURKA in tumor cells (NMP53/cells) 8 h after treatment with increasing concentrations of compound 2c [N-(5-((4-(1H-pyrazole-4-yl)benzyl)amino)-2-fluorophenyl)-3-(furan-2-yl)propanamide]. Vinculin served as loading control (n=2) B. Western blot analysis of MYC and AURKA in tumor cells (NMP53^−/− cells) 8 h after treatment with increasing concentrations of compound 3a [N-(2-fluoro-5-((4-(1-methyl-1H-pyrazole-4-yl)benzyl)amino)phenyl)-3-(furan-2-yl)propanamide]. Vinculin served as loading control (n=2). […]
For western blot analysis, 2×10^6 cells were seeded per 10 cm dish and next day treated with the indicated compound concentrations. […] After addition of 4× Laemmli buffer (200 mM Tris-HCl pH 6.8, 8% SDS, 4% (3-mercaptoethanol, 40% glycerol, 0.33% bromophenol blue) the lysates were boiled for 5 min at 95° C. For western blot analysis, proteins were separated by SDS-polyacrylamide electrophoresis (using 25 μg of each sample) and transferred onto PVDF Immobilon-P membranes (Millipore). The blots were incubated with antibodies specific to MYC (Abeam ab32072, 1:1 000), AURKA (Abeam ab13824, 1:1 000) and Vinculin (Sigma Aldrich V9131-2 mL 1:10 000), followed by peroxidase-conjugated secondary antibodies. Proteins were detected by ChemiDoc MP Imaging System (Bio-Rad) using Clarity Western ECL Substrate (Bio-Rad).

[5] = test system: NMP53^−/− cells; assay: Colony formation assay on NMP53^−/− cells; format: cell-based, murine; conditions: for minimal effective concentration: Mus musculus, 120 h, 5 days, read-out: EC (NMP53^−/−)
From the text: To evaluate the effect of small molecules equipped with R-spine interacting moieties, the inventors screened a focused library of proprietary p38a MAP-Kinase inhibitors which were equipped with R-spine interacting pharmacophores. To this end, the inventors utilized a screening system as developed in Dauch et al.^2 The screening system is based on colony formation assays of cell lines isolated from Nras-driven, Trp53-deficient murine HCCs, whose development is dependent on MYC (NMP53^−/− cells), as well as Nras-driven, Cdkn2a^ARF-deficient murine HCCs, which develop independently of MYC (NMCdkn2a^ARF−/− cells). Importantly, NMP53^−/− cells are sensitive to AURKA inhibitors, which induce a conformational shift in AURKA, whereas NMCdkn2a^ARF−/− are not sensitive to such compounds.
For Colony Formation Assays, cells were seeded at a density of 50 000 cells per 6 well and next day treated with a 2-fold dilution series of the indicated compounds or the highest corresponding DMSO concentration as control. After 5 days, the cells were fixed with a 10% formaldehyde solution for 30 min, washed once with water, stained with a 0.5% crystal violet solution for 30 min and washed twice with water. The compounds effective concentration (EC) was determined according to the lowest concentration in the dilution series, that inhibited cell growth substantially. The resulting benzamide containing hit structure 1, with a twofold selectivity towards NMP53^−/− cells (effective concentration on NMP53^−/− cells (EC): 2 μM, EC on Cdkn2a^ARF−/−: 4 μM, FIG. 1), served as the inventors' starting point for further compound development.

[6] = colony formation assay, lowest concentration of 2-fold dilution series that inhibited cell growth substantially

| Compound | interaction of AURKA with TPX2 [1] | off-targets in kinome screen ([2]; 100 nM) | selectivity score ([2]; 500 nM) | IC50 [3] | MYC levels [4] | higher cellular activity compared to the initial hit 1 ([5]; EC on NMP53^−/− cells) | increased efficacy compared to compound 2a ([5]; EC on NMP53^−/− cells) | minimal effective concentration [5, 6] | minimal effective concentration ([5]; colony formation assay) | selectivity for NMP53^−/− cells ([5]; NMP53^−/− versus NMCdkn2a^ARF−/− cells, colony formation assay) | inhibition in kinome screen ([2]; 320 wildtype kinases) |
| --- | --- | --- | --- | --- | --- | --- | --- | --- | --- | --- | --- |
| O=C(CCc1ccco1)Nc1cc(NCc2ccc(-c3cn[nH]c3)cc2)ccc1F [Compound 2c, N-(5-((4-(1H-pyrazole-4-yl)benzyl)amino)-2-fluorophenyl)-3-(furan-2-yl)propanamide] | largely enhance | no off-targets | 0.019 | 27.6 nM | reduced in a concentration dependent manner | up to 16 fold | 4 fold | 0.125 µM | 0.125 µM | up to 8 fold |  |
| Cn1cc(-c2ccc(CNc3ccc(F)c(NC(=O)CCc4ccco4)c3)cc2)cn1 [Compound 3a, N-(2-fluoro-5-((4-(1-methyl-1H-pyrazole-4-yl)benzyl)amino)phenyl)-3-(furan-2-yl)propanamide] | largely enhance |  |  | > 10000 nM | reduced in a concentration dependent manner |  |  | 0.031 µM | 0.031 µM |  | overall no inhibition |
